Measured values published in PMC12261321, “Inhibitors of the Bacterioferritin Ferredoxin Complex Dysregulate Iron Homeostasis and Kill and Biofilm-Embedded Cells” (ACS Infectious Diseases, 2025).
≈ marks a conversion by molar mass, not a printed value.

Tests used:
[1] = Determination of compound aqueous solubility in M63 media; format: physicochemical; settings: in M63 media at 35 °C
Procedure: Determination of Compound Aqueous Solubility. Compound stocks (100 mM in DMSO) were prepared from […]
powder and then further diluted with DMSO to prepare 20 mM working solutions, which were diluted as needed […]
in DMSO. 15 µL o f the DMSO solution was then d iluted to a final volume o f 1.0 mL in M63 media. Six solutions […]
were prepared for each compound, each with a distinct concentration and 1.5% DMSO (v/v). 700 µL of each […]
compound solution was transferred to a polystyrene 48-well plate (VWR), followed by acquisition of UV-vis […]
spectra (300 to 700 nm) with the aid of an Epoch 2 microplate reader (B i o Te k ). […]
Following the acquisition of UV-vis spectra, each of the wells in the plate was inspected under a […]
microscope for evidence of precipitation. Evidence of precipitation at any given concentration was determined by observing a shift in the baseline of the UV-vis spectra relative to the blank (M63 media) and/or evidence of visual precipitation with the aid of a micros cope. […]

recombinant Pa BfrB = molecular target: T1, recombinant Pa BfrB (Pseudomonas aeruginosa, UniProt Q9HY79); test: Dissociation constant (Kd), fluorescence quenching titration of apo Pa BfrB; format: binding, P. aeruginosa
T1 construct: made in house; host or cells: E. coli
T1 sequence (Q9HY79 whole entry): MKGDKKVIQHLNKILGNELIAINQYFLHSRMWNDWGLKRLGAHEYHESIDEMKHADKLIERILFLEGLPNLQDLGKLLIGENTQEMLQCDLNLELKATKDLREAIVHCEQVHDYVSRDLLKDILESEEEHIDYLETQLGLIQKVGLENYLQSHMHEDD
Procedure: Measurement of Dissociation Constant (Kd) R ecombinant Pa BfrB was expressed in E. coli and purified as previously reported.19 Apo-BfrB (devoid of heme) was utilized for the measurements to prevent heme-driven fluorescence quenching. A 0.5 mL solution contai ning 0.01 µM apo Pa-BfrB in PBS (pH = 7.4) containing0.5% DMSO was plac ed into a 1 cm quartz cuvette wh ere it was titrated with aliq uots of compound dissolved in a 50% (v/v) PBS/DMSO solution. The fluorescence quenching brought by the addition of each aliquot was monitored with the aid of an Agilent Cary Fluorometer , with excitation at 280 nm, emission at 320- 470 nm, 10 x10 nm slit width, and an average of 5 scans per spectrum. Th e binding assay included at least 8 aliquots spanning from ~ 0.1 […]
A control titration was carried out by titrati ng compound into PBS buffer. The Kd was cal culated by fitting the data to equation S4, w here Fb is the fraction bound and Fmax is the fraction bound at saturating compound concentration.
FFbb = FFmmmmmm ? [ccccmmccccccmmcc ]? (S4) […]

P. aeruginosa PAO1 = test: Half maximal inhibitory concentration (IC50), planktonic growth (CFU/mL); format: cell-based; settings: M63 media, 18 h
Procedure: Measurement of Half Maximal Inhibitory Concentration (IC50). IC50 values were determined as reported earlier13 with some modifications. Compound stock solutions in DMSO (100 mM and 10 mM) were prepared from powd er. To prep are the cell susp ensions utilized in the measu rements, starter cultures o f P. aeru ginosa wer e diluted to an optical density at 600 nm (OD600) = 0.005 in fresh LB media (5 mL) and then cultured at 37°C and 220 rpm for 4 h prior to diluting to an OD600 = 0.0001 in M63. A small volume of compound stock solution w as further diluted in DMSO to 30 µL and then diluted in M63 cell suspension to a final volume of 2.0 mL. The resultant solution was placed in a well of a 96-well plate and then serially 2-fold diluted in M63 cell suspension to produce 6 distinct com pound concent rations, each with 1.5% DMSO. Th e plate was co ver ed and incubated for 18 h at 35 °C in a Synergy H1 plate reader (Biotek). The resultant cell cultures were serially diluted in PBS and then plated on PI Agar plates (PIA; BD biosciences) for counting viable cells (CFU/mL). The % growth was calculated from the ratio CFU/mL(t reat ed )/CFU/mL(untreated control). To calculate the IC50 values, the % growth was plotted as a function of compound concentration expressed as log[compound] ( µM), and fitted to equation S1 describing the sigmoid- shaped response pattern, 14 where b is the slope factor, max is the upper asymptote (plateau), and min is the lower asymptote. IC 50 values are the average and standard deviation from three independent experiments , each conducted with thr ee techni cal replicates.

A. baumannii 5075 = test: MIC, broth microdilution in M63 media; format: cell-based
Procedure: (§1) Measurement of Minimum Inhibitory Concentrations (MIC). The MIC of compounds and select ed antibiotics against three strains of A. baumannii (5075, ATCC 17988, and ATCC 19606) were determined via the broth microdilution method according to Clinical and Laboratory Standard Instit ute (CLSI) guidelines,15 but culturing […]
(§2) To establish a 2-fold dilution series of compound, 985 μ L of diluted cells was mixed with 15 μ L of compound […]
(§3) dissolved in DMSO, such that the resultant solution had the highest concentration of compound or antibiotic tested and 1.5% DMSO. To carry out the serial dilution from the highest compound concentration, a 150 μ L solution of higher concentration compound or antibiotic was mixed with 150 μ L of cell suspension containing 1.5% DMSO in the wells of a 96 well plate.
(§4) Th e 96 well plate was in cubated for 20 hat 35 °C with continuous orbital shaking (205 cpm) in an Epoch2 microplate reader (BioTek), monitoring the growth by […]
(§5) following the OD600. […]
(§6) FFFFFF = MMMMMMAA iiii ccllccbbiiiicccciilliiMMMMMMAA+ MMMMMMBB iiii ccllccbbiiiicccciilliiMMMMMMBB S2 Time Kill Assays. Time-kill assays were performed with A. baumannii 507 5 by the broth macro- dilution method in M63- medium containing 1.5% DMSO. An overnight culture was diluted to approximately 5 x10^5 CFU/mL in fresh M63 media. The test solutions were prepared by adding compound (KM-5- 35, or KM-5- 25) dissolved in DMSO to 5 mL of diluted cell suspension to yield a solution of the desired compound concentration and 1.5% DMSO, or by the addition of antibiotic dissolved in water and a small volume of DMSO to produce the desired

A. baumannii ATCC 17978 = test: MIC, broth microdilution in M63 media; format: cell-based
Procedure: as §1, §2, §3, §4, §5, §6

A. baumannii ATCC 19606 = test: MIC, broth microdilution in M63 media; format: cell-based
Procedure: as §1, §2, §3, §4, §5, §6

[2] = M63 media with 1.5% DMSO, 35 °C, aqueous buffer, kinetic from dmso stock
[3] = Pseudomonas aeruginosa, PAO1, planktonic cells
[4] = Acinetobacter baumannii, 5075, 20 h
[5] = Acinetobacter baumannii, ATCC17978, 20 h
[6] = Acinetobacter baumannii, ATCC19606, 20 h

| Compound | solubility at 4 h [1] [µM] | Kd (recombinant Pa BfrB) [µM] | IC50 (P. aeruginosa PAO1; planktonic cells) [µM] | MIC (A. baumannii 5075; 20 h) [µM] | MIC (A. baumannii ATCC 17978; 20 h) [µM] | MIC (A. baumannii ATCC 19606; 20 h) [µM] | solubility at 4 h [1, 2] [µM] | IC50 (P. aeruginosa PAO1; [3]) [µM] | MIC (A. baumannii 5075; [4]) [µM] | MIC (A. baumannii ATCC 17978; [5]) [µM] | MIC (A. baumannii ATCC 19606; [6]) [µM] | IC50, P. aeruginosa PAO1 (P. aeruginosa PAO1; planktonic cells) |
| --- | --- | --- | --- | --- | --- | --- | --- | --- | --- | --- | --- | --- |
| Cc1cc(Cl)cc(CNc2cccc3c2C(=O)NC3=O)c1O [SB-16-156] | 40 (≈ 12.7 µg/mL) | 7 ± 2 | 21 ± 5 | > 40 | > 40 | > 40 | – | – | – | – | – | – |
| O=C1NC(=O)c2c(NCc3cc(Br)cc(O)c3O)cccc21 [SB-16-136] | 60 (≈ 21.8 µg/mL) | 7 ± 1 | 20 ± 5 | 40 (≈ 14.5 µg/mL) | 30 (≈ 10.9 µg/mL) | 30 (≈ 10.9 µg/mL) | – | – | – | – | – | – |
| O=C1NC(=O)c2c(NCc3ccccc3O)cccc21 [Analog 11, 4-((2-Hydroxybenzyl)amino)isoindoline-1,3-dione] | – | – | – | – | – | – | 200 (≈ 53.7 µg/mL) | 178 ± 14 | 80 (≈ 21.5 µg/mL) | 120 (≈ 32.2 µg/mL) | 80 (≈ 21.5 µg/mL) | – |
| O=C1NC(=O)c2c(NCc3cc(Br)ccc3O)ccc(Cl)c21 [SB-16-124] | 20 (≈ 7.63 µg/mL) | 11 ± 1 | 17 ± 2 | 20 (≈ 7.63 µg/mL) | 20 (≈ 7.63 µg/mL) | 20 (≈ 7.63 µg/mL) | – | – | – | – | – | – |
| Cc1cccc(CNc2cccc3c2C(=O)NC3=O)c1O [EB-5-70] | 100 (≈ 28.2 µg/mL) | 17 ± 2 | – | 100 (≈ 28.2 µg/mL) | 100 (≈ 28.2 µg/mL) | 100 (≈ 28.2 µg/mL) | – | – | – | – | – | Not active |
| O=C1NC(=O)c2c(NCc3cc(Br)cc(O)c3O)ccc(Br)c21 [SB-16-250] | 20 (≈ 8.84 µg/mL) | 15 ± 3 | 5 ± 2 | > 20 | > 20 | > 20 | – | – | – | – | – | – |
| O=C1NC(=O)c2c(NCc3cc(Br)cc(F)c3O)cccc21 [SB-16-118] | 40 (≈ 14.6 µg/mL) | 4 ± 0.3 | 25 ± 8 | 20 (≈ 7.3 µg/mL) | 30 (≈ 11 µg/mL) | 30 (≈ 11 µg/mL) | – | – | – | – | – | – |
| O=C1NC(=O)c2c(NCc3cc(F)ccc3O)ccc(Br)c21 [SB-16-67] | 40 (≈ 14.6 µg/mL) | 7 ± 1 | > 40 | 40 (≈ 14.6 µg/mL) | 20 (≈ 7.3 µg/mL) | 30 (≈ 11 µg/mL) | – | – | – | – | – | – |
| O=C1NC(=O)c2c(NCc3cc(Cl)cc(O)c3O)cccc21 [SB-16-168] | – | 12 ± 2 | – | – | – | – | 40 (≈ 12.7 µg/mL) | 15 ± 7 | 40 (≈ 12.7 µg/mL) | > 40 | > 40 | – |
| O=C1NC(=O)c2c(NCc3ccc(Br)cc3O)cccc21 [EB-5-61] | 60 (≈ 20.8 µg/mL) | 13 ± 3 | 24 ± 2 | 50 (≈ 17.4 µg/mL) | 50 (≈ 17.4 µg/mL) | 50 (≈ 17.4 µg/mL) | – | – | – | – | – | – |
| O=C1NC(=O)c2c(NCc3c(O)cccc3Br)cccc21 [EB-5-72] | 60 (≈ 20.8 µg/mL) | 15 ± 3 | 32 ± 5 | > 60 | > 60 | > 60 | – | – | – | – | – | – |
